Patent US20240252456A1, “ORAL COMPOSITION, SKIN COSMETIC AND HAIR COSMETIC” (MARUZEN PHARMACEUTICALS CO., LTD., priority 2021, published 2024)

What was measured:
[1] = system: Normal human dermal fibroblasts (NB1RGB); assay: Glutathione production promotive action test (dermal fibroblasts); format: cell-based; settings: 24 hours
Method: Normal human dermal fibroblasts (NB1RGB) were cultured using α-modified Eagle's minimum essential medium (α-MEM) containing 10% FBS, and then the cells were collected by a trypsin treatment. The collected cells were diluted with α-MEM containing 10% FBS to a cell density of 2.0×10^5 cells/mL, then seeded with 200 μL per well in a 48-well plate, and cultured for 48 hours.
After culturing, the medium was removed, 200 μL of each of test samples (Samples 1 to 3, see Table 14 below for final concentrations) dissolved in Dulbecco's modified Eagle's medium (DMEM) containing 1% FBS was added to each well, and culturing was further performed for 24 hours. As a control, culturing was performed in the same manner using DMEM containing 1% FBS to which no test sample was added. After the culturing was completed, the medium was removed from each well, and the cells were washed with 400 μL of PBS(−) buffer solution and then lysed using 150 μL of M-PER (available from PIERCE).
Quantitative determination of total glutathione was performed using 100 μL of the lysed cells. That is, 100 μL of lysed cell extract, 50 μL of 0.1 mol/L phosphate buffer solution, 25 μL of 2 mmol/L NADPH, and 25 μL of 3.2 unit/mL glutathione reductase were added to a 96-well plate and heated at 37° C. for 10 minutes, then 25 μL of 10 mmol/L 5,5′-dithiobis(2-nitrobenzoic acid) was added, and the absorbance at a wavelength of 412 nm was measured until 5 minutes later to determine ΔOD/min. The total glutathione concentration was calculated based on a calibration curve created using oxidized glutathione (available from FUJIFILM Wako Pure Chemical Corporation). After correcting the obtained value to the glutathione value per total protein amount, the glutathione production promotion rate (%) was calculated using the following equation.
Terms in the equation represent the following respective ones. • A: Glutathione amount per total protein amount without sample addition • B: Glutathione amount per total protein amount with test sample addition

[2] = system: Normal human liver cells (hepatocytes); assay: ATP production promotive action test in hepatocytes; format: cell-based; settings: 2 hours
Method: Normal human liver cells (hepatocytes) were cultured using Dulbecco's modified Eagle's medium (DMEM) containing 10% FBS, and then the cells were collected by a trypsin treatment. The collected cells were diluted with DMEM containing 10% FBS to a cell density of 2.0×10^5 cells/mL, then seeded with 100 μL per well in a 96-well plate, and cultured overnight.
After the culturing was completed, the medium was removed, 100 μL of each of test samples (Samples 1 to 3, see Table 31 below for final concentrations) dissolved in DMEM containing 10% FBS was added to each well, and culturing was performed for 2 hours. As a control, culturing was performed in the same manner using DMEM containing 10% FBS to which no sample was added.
The ATP production promotive action was evaluated by measuring the amount of ATP in cells using the firefly luciferase luminescence method. That is, after culturing for 2 hours, 100 μL of an ATP measurement reagent (available from Toyo B-Net Co., Ltd., trade name “‘Cellular’ ATP measurement reagent”) was added to each well, and chemiluminescence reaction using luciferase was performed. After the reaction, the amount of chemiluminescence proportional to the amount of intracellular ATP was measured using a chemiluminescence measurement device (available from Thermo Fisher Scientific, product name: Varioskan LUX multimode microplate reader). From the obtained results, the ATP production promotion rate (%) was calculated using the following equation.
Terms in the equation represent the following respective ones. • A: Chemiluminescence amount with test sample addition • B: Chemiluminescence amount without sample addition

DPP IV (rhCD26) = biological target: T1, DPP IV (rhCD26) (Homo sapiens, UniProt P27487); assay: DPP IV activity inhibitory action test; format: biochemical; settings: read-out: DPP IV activity inhibition rate; for inhibition at 2500 µM: 2500 μmol/L; for inhibition at 10000 µM: 10000 μmol/L
T1 construct: purchased R&D Systems
Method: In a 96-well plate, 25 μL of each of test samples (Samples 1 to 3, see Table 3 below for final concentrations) prepared with 25 mM Tris-HCl buffer solution (pH 8.0) and 25 μL of 0.4 μg/mL DPP IV (available from R&D Systems, rhCD26) solution prepared with the above buffer solution were mixed and preincubated at 37° C. for 5 minutes. After that, 50 μL of 0.5 mM Gly-Pro-p-NA-Tos (available from PEPTIDE […], INC.) prepared with the above buffer solution was added, and the mixture was reacted at 37° C. for 90 minutes. After the reaction was completed, the absorbance at a wavelength of 415 nm was measured. From the obtained results, the DPP IV activity inhibition rate (%) was calculated using the following equation.
Terms in the equation represent the following respective ones. • A: Absorbance at wavelength 415 nm without sample addition and with enzyme addition • B: Absorbance at wavelength 415 nm without sample addition and without enzyme addition • C: Absorbance at wavelength 415 nm with test sample addition and with enzyme addition • D: Absorbance at wavelength 415 nm with test sample addition and without enzyme addition

T1 sequence (P27487 whole entry): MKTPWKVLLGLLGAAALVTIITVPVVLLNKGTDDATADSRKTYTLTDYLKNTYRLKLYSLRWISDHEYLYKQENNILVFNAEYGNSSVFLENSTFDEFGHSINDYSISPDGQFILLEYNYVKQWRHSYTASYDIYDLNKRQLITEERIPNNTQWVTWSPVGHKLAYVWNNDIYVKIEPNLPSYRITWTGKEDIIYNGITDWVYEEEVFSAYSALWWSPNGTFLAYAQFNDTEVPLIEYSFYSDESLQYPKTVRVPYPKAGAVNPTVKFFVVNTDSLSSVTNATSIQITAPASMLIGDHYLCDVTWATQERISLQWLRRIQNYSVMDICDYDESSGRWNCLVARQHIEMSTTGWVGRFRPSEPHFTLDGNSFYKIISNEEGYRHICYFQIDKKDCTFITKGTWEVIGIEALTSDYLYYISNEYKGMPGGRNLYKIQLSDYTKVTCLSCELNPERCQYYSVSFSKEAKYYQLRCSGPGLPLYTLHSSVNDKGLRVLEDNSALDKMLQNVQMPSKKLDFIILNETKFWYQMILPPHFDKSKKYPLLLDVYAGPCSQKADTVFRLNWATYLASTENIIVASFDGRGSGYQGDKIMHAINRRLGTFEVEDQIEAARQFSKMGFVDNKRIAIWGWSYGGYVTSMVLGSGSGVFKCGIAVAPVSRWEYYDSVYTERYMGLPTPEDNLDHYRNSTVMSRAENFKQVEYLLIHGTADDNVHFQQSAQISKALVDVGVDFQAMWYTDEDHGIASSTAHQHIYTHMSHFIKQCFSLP

| Compound | Glutathione production promotion rate ([1]; 1000 μmol/L) [%] | ATP production promotion rate ([2]; 250 μmol/L) [%] | ATP production promotion rate ([2]; 500 μmol/L) [%] | ATP production promotion rate ([2]; 1000 μmol/L) [%] | inhibition at 2500 µM (DPP IV (rhCD26)) [%] | inhibition at 10000 µM (DPP IV (rhCD26)) [%] | Glutathione production promotion rate ([1]; 62.5 μmol/L) [%] | inhibition at 625 µM (DPP IV (rhCD26); 625 μmol/L) [%] |
| --- | --- | --- | --- | --- | --- | --- | --- | --- |
| O=C(O)CCc1ccccc1 [Sample 3, 3-phenylpropionic acid] | 129.9 | 128.0 | 136.5 | 156.1 | 4.1 | 99.8 | – | – |
| O=C(O)CCc1ccc(O)c(O)c1 [Sample 1, 3,4-Dihydroxyhydrocinnamic acid] | – | 128.4 | 166.8 | 168.9 | 17.6 | 97.1 | 125.8 | 7.2 |
| O=C(O)CCc1ccc(O)cc1 [Sample 2, 3-(4-Hydroxyphenyl)propionic acid] | 131.7 | 141.9 | 159.1 | 165.1 | – | 96.9 | – | – |
